Results taken from publication PMC10287695, “Non-covalent inhibitors of thioredoxin glutathione reductase with schistosomicidal activity in vivo” (Nature Communications, 2023).

What was measured:
Type in all cases: cell-based
S. mansoni adult worms [1] = experiment: GSH/GSSG ratio in ex vivo adult worms; details: for Ratio GSH/GSSG / % Ratio GSH/GSSG: first data set (r117-133); for Ratio GSH/GSSG: baseline 55.82; for % Ratio GSH/GSSG: baseline = 100
Protocol: We assessed GSH/GSSG levels experimentally by treating S. mansoni adult worms with 50 µM of compounds, or respective controls 5 µM Auranofin, 50 µM PZQ or 50 µM MZM and 0.01% DMSO for 3 h. Worm homogenate was prepared by washing three times with PBS to remove residual compounds and ten volumes of ice cold 5% sulfosalicylic acid was added. Worms were manually homogenized on ice using VWR Pellet Mixer Adaptor. The worm suspension was centrifuged at 14000 × g, 4 °C for 10 min and the acid supernatants transferred. An equal volume of ice-cold neutralization buffer (500 mM HEPES, pH 8.0) was added to the acid supernatants.
GSH/GSSG assay was performed by diluting the acid supernatant (5-fold) with ice-cold dilution buffer (250 mM HEPES, pH 7.5). Using white opaque luminescence plate on ice, 25 µl of the diluted worm acid supernatant was added each well in triplicates. Total glutathione lysis reagent and GSSG lysis reagent, which contains alkylating agent N-ethylmaleimide (25 mM) were prepared following manufactures protocol and added to respective wells along with blank for background. Total glutathione lysis reagent or oxidized glutathione lysis reagent (25 µl) was added to respective wells containing worm acid supernatants and the plate was shaken for 5 min. Luciferin generation reagent (LGR) (50 µl) was added to all wells, briefly shaken and incubated at room temperature for 30 min. Luciferin detection reagent (LDR) (100 µl) was added to all wells, briefly shaken and incubated for 15 min at room temperature and the luminescence measured using microplate imager (BioTek Cytation3). GSH/GSSH ratio for DMSO control and compounds were calculated using (Net DMSO total glutathione RFU) – (Net DMSO GSSG RFU)/ (Net DMSO GSSG RFU)/2 and (Net inhibitor total glutathione RFU) – (Net inhibitor GSSG RFU)/ (Net inhibitor GSSG RFU)/2 respectively.

S. mansoni adult worms [2] = experiment: Schistosomicidal activity ex vivo, adult worms (Cell Titer Glo), alone or with channel blockers; details: for % viability: S. mansoni adult worms
Protocol: Three-week old, female Swiss-Webster mice obtained from the Charles River were housed in the Comparative Research Center of Rush University Medical Center. Mice were infected by percutaneous tail exposure to about 200 S. mansoni or 50 S. japonicum cercaria for adult worms and about 1000 cercaria for juvenile S. mansoni worms through natural transdermal penetration of the cercariae for 1 h[81].
DMSO formulated compounds were diluted with phenol red free M199 medium or RPMI medium for NTS or juvenile and adult worms, respectively, at <1% DMSO final concentrations. NTS, juvenile and adult worms from overnight cultures were tested against compounds in triplicate. Controls were treated with DMSO alone or 5 µM AF as a positive control in appropriate medium. […] Schistosome viabilities in the presence of the compounds were assessed using this formula: % Viability = Averages of Test / Averages of DMSO Control x 100.

[3] = system: S. mansoni newly transformed schistosomula (NTS); experiment: Schistosomicidal activity ex vivo, NTS (Cell Titer Glo); details: for % viability: S. mansoni NTS
Protocol: Oncomelania hupensis subsp. hupensis, Chinese strain, infected with S. japonicum, Chinese strain, and Biomphalaria glabrata, strain NMRI, infected with S. mansoni, strain NMRI, were provided by the NIAID Schistosomiasis Resource Center for distribution through BEI Resources, NIAID, NIH. After infections were patent, snails were exposed to bright light for 1 hr to obtain cercariae. Cercariae were mechanically transformed to schistosomula. Briefly, cercariae were placed on ice for 30 min and then centrifuged at 350 × g for 10 mins. The supernatant was decanted and 2 ml of serum-free M199 medium was added to cercarial pellets and vortexed for 1 min until cercarial tails were detached. NTS were purified by layering on 4 °C Percoll gradient suspension containing Eagle’s minimum essential medium, penicillin-streptomycin (10,000 U per ml penicillin/10,000 U per ml streptomycin), and 1 M HEPES in 0.85% NaCl with cercariae suspension and centrifuged at 500 × g for 15 min. Cercarial pellets were resuspended and washed thrice in serum-free M199 medium and collected at 100 × g for 5 min. NTS (240) were transferred to U-bottom 96 well assay plates containing 200 µl of M199 medium supplemented with 5.5 mM D-glucose, penicillin-streptomycin and 5% heat inactivated fetal bovine serum and incubated at 37 °C in a 5% CO2 incubator overnight.
DMSO formulated compounds were diluted with phenol red free M199 medium or RPMI medium for NTS or juvenile and adult worms, respectively, at <1% DMSO final concentrations. NTS, juvenile and adult worms from overnight cultures were tested against compounds in triplicate. Controls were treated with DMSO alone or 5 µM AF as a positive control in appropriate medium. Worm viability was assessed at 24 or 72 h by measuring ATP content of worms using Cell Titer Glo Assay (Promega) as described. Schistosome viabilities in the presence of the compounds were assessed using this formula: % Viability = Averages of Test / Averages of DMSO Control x 100.

CC(=O)OC[C@H]1O[C@@H]([S-])[C@H](OC(C)=O)[C@@H](OC(C)=O)[C@@H]1OC(C)=O.CCP(CC)CC.[Au+] [AF, auranofin, reference compound]
Ratio GSH/GSSG (S. mansoni adult worms [1]; 1 hr): 8.34 | % Ratio GSH/GSSG (S. mansoni adult worms [1]; 1 hr): 14.9481% | Ratio GSH/GSSG (S. mansoni adult worms [1]; 3 hr): 4.85 | % Ratio GSH/GSSG (S. mansoni adult worms [1]; 3 hr): 8.693% | Decrease (%) in GSH/GSSG ratio (S. mansoni adult worms [1]; adult worms, 3 h exposure to compounds at 50 μM): 91% | LD50 ex vivo S. mansoni adult (S. mansoni adult worms [2]; 24 h exposure, compound alone): 1.1 ± 0.04 µM | % viability (S. mansoni adult worms [2]; Conc. 0.5 µM): 85.422% | % viability (S. mansoni adult worms [2]; Conc. 1 µM): 43.1217% | % viability (S. mansoni adult worms [2]; Conc. 2 µM): 23.1816% | % viability (S. mansoni adult worms [2]; Conc. 5 µM): 3.259% | LD50 ex vivo S. mansoni NTS ([3]; 24 h exposure, Cell TiterGlo): 0.31 ± 0.02 µM | % viability ([3]; Conc. 0.25 µM): 60.0497% | % viability ([3]; Conc. 0.5 µM): 36.3261% | % viability ([3]; Conc. 1 µM): 18.3613% | % viability ([3]; Conc. 2 µM): 10.7245% | % viability ([3]; Conc. 5 µM): 0.4904%

Cc1oc(-c2ccccc2)nc1CN[C@@H]1C[C@@H]2C[C@H]([C@H]1C)C2(C)C [C3]
% viability ([3]; Conc. 5 µM): 6.85% | % viability ([3]; Conc. 15 µM): 0.6968% | % viability ([3]; Conc. 30 µM): 0.5581% | % viability ([3]; Conc. 50 µM): 0.6054%

Cc1oc(-c2ccc3ccccc3c2)nc1CNC1CCCCCC1 [C5]
% viability ([3]; Conc. 1 µM): 80.9812% | % viability ([3]; Conc. 5 µM): 52.5668% | % viability ([3]; Conc. 15 µM): 62.9498% | % viability ([3]; Conc. 35 µM): 0.09782% | % viability ([3]; Conc. 50 µM): 0.07949%

C[C@@H]1[C@H]2C[C@@H](C[C@H]1NCc1nc3ccccc3n1C)C2(C)C [C12]
% viability ([3]; 5 µM, relative to Worm + M199 control): 95.6217% | % viability ([3]; 15 µM, relative to Worm + M199 control): 91.9573% | % viability ([3]; 30 µM, relative to Worm + M199 control): 88.4326% | % viability ([3]; 50 µM, relative to Worm + M199 control): 85.8655%
